Data published in patent publication US9260410B2, “P38 MAP kinase inhibitors” (Respivert Ltd., priority 2010, dated 2016).
Read-outs that look alike come from different tables or passages of the source.

Legend:
[1] = tested on: LPS-induced TNFα release in d-U937 cells; test: LPS-induced TNFα release in d-U937 cells; format: cell-based; conditions: Homo sapiens, dU937, 4 h
Description: U937 cells, a human monocytic cell line, were differentiated to macrophage-type cells by incubation with phorbol myristate acetate (PMA; 100 ng/ml) for 48 to 72 hr. […] The supernatant was collected for determination of TNFα and IL-8 concentrations by sandwich ELISA (Duo-set, R&D systems). […] The relative 50% effective concentration (REC50) was determined from the resultant concentration-response curve. The inhibition of IL-8 production was calculated at each concentration of test compound by comparison with vehicle control.

[2] = tested on: LPS-induced TNFα release in THP-1 cells; test: LPS-induced TNFα release in THP-1 cells; format: cell-based; conditions: Homo sapiens
Description: THP-1 cells, a human monocytic cell line, were stimulated with 3 μg/mL of LPS (from E. Coli; 0111:B4, Sigma) for 4 hr and the supernatant collected for determination of the TNFα concentration by sandwich ELISA (Duo-set, R&D systems). The inhibition of TNFα production was calculated at each concentration by comparison with vehicle control. The 50% inhibitory concentration (IC50) was determined from the resultant concentration-response curve.

[3] = tested on: Differentiated U937 cells; test: MTT assay: cell viability; format: cell-based, human; conditions: 10 μg/ml
Description: The supernatant was replaced with 200 μL of new media and 10 μL of MTT stock solution (5 mg/mL) was added to each well. After incubation for 1 hr the media were removed, 200 μL of DMSO was added to each well and the plates were shaken lightly for 1 hr prior to reading the absorbance at 550 nm. The percentage loss of cell viability was calculated for each well relative to vehicle (0.5% DMSO) treatment. Consequently an apparent increase in cell viability for drug treatment relative to vehicle is tabulated as a negative percentage.

Row | EC50 ([1]; read-out: LPS/TNFα d-U937 REC50) [nM] | IC50 ([2]; THP-1 cells, 3 μg/mL LPS, 4 hr, read-out: LPS/TNFα THP-1 IC50) [nM] | Compound | EC50 ([1]; read-out: LPS/TNFα d-U937 REC50 (nM)) [nM] | IC50 ([2]; THP-1, 4 h, read-out: LPS/TNFα THP-1 IC50 (nM)) [nM] | MTT Assay 4 h (cell viability) ([3]; d-U937, 4 hr in 5% FCS) | MTT Assay 24 h (cell viability) ([3]; d-U937, 24 h in 10% FCS)
1 |  |  | CC(=O)Nc1cc(Oc2ccc(NC(=O)Nc3cc(C(C)(C)C)nn3-c3ccc(C)cc3)c3ccccc23)ccn1 [Example 3, N-(4-((4-(3-(3-(tert-Butyl)-1-(p-tolyl)-1H-pyrazol-5-yl)ureido)naphthalen-1-yl)oxy)pyridin-2-yl)acetamide] | 1 | 1.6 |  | 
2 | 4.8 | 4.1 | Cc1ccc(-n2nc(C(C)(C)C)cc2NC(=O)Nc2ccc(OCCN3CCOCC3)c3ccccc23)cc1 [BIRB796, 1-(3-tert-Butyl-1-p-tolyl-1H-pyrazol-5-yl)-3-(4-(2-morpholinoethoxy)naphthalen-1-yl)urea] |  |  | − (− = <30% inhibition at 10 μg/ml) | − (− = <30% inhibition at 10 μg/ml)
